Data: PubChem BioAssay AID1963867 (Molecular Pharmacology Branch, DTP, NCI, 2024)

Tested on: KRAS-mutant PDC tumor spheroid with HUVEC/MSC, viability
Experiment: Anticancer human tumor 327498-153-R-J2-PDC patient-derived uterine carcinosarcoma cell line growth inhibition [KRAS2]
Settings: for IC50: curve of first compound; for viability, T/C: stronger effect = lower value
In short: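 Combination screen of spheroid viability in tumor-cell co-cultures with endothelial (HUVEC) and mesenchymal stem cell stroma. Each agent was tested in half-log dilutions, topping at clinical Cmax or at 10 microM without a known Cmax.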

[1] = second compound 0.1 µM, first compound 0.0316 µM
[2] = second compound 0.1 µM, first compound 0.1 µM
[3] = second compound 0.1 µM, first compound 0.316 µM
[4] = second compound 0.1 µM, first compound 1 µM
[5] = second compound 0.1 µM, first compound 3.16 µM
[6] = second compound 0.1 µM, first compound 10 µM
[7] = second compound 0.316 µM, first compound 0.0316 µM
[8] = second compound 0.316 µM, first compound 0.1 µM
[9] = second compound 0.316 µM, first compound 0.316 µM
[10] = second compound 0.316 µM, first compound 1 µM
[11] = second compound 0.316 µM, first compound 3.16 µM
[12] = second compound 0.316 µM, first compound 10 µM
[13] = second compound 1 µM, first compound 0.0316 µM
[14] = second compound 1 µM, first compound 0.1 µM
[15] = second compound 1 µM, first compound 0.316 µM
[16] = second compound 1 µM, first compound 1 µM
[17] = second compound 1 µM, first compound 3.16 µM
[18] = second compound 1 µM, first compound 10 µM
[19] = second compound 3.16 µM, first compound 0.0316 µM
[20] = second compound 3.16 µM, first compound 0.1 µM
[21] = second compound 3.16 µM, first compound 0.316 µM
[22] = second compound 3.16 µM, first compound 1 µM
[23] = second compound 3.16 µM, first compound 3.16 µM
[24] = second compound 3.16 µM, first compound 10 µM
[25] = second compound 10 µM, first compound 0.0316 µM
[26] = second compound 10 µM, first compound 0.1 µM
[27] = second compound 10 µM, first compound 0.316 µM
[28] = second compound 10 µM, first compound 1 µM
[29] = second compound 10 µM, first compound 3.16 µM
[30] = second compound 10 µM, first compound 10 µM
[31] = second compound 0.1 µM, first compound 0.01 µM
[32] = second compound 0.316 µM, first compound 0.01 µM
[33] = second compound 1 µM, first compound 0.01 µM
[34] = second compound 3.16 µM, first compound 0.01 µM
[35] = second compound 10 µM, first compound 0.01 µM
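Also: spheroids exposed to agents for seven days before reading.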
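For viability, T/C in this document: 100% = DMSO vehicle wells so lower means fewer viable cells.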

For `Cn1nccc1Nc1nccc(-c2cc3c(s2)C(C)(C)N(CCN2CCOCC2)C3=O)n1` + CC1OCC2(CCN(c3cnc(Sc4ccnc(N)c4Cl)c(N)n3)CC2)C1N, the IC50 (second compound 0.1 µM) was 644 nM, the IC50 (second compound 0.316 µM) was 61.1 nM and the IC50 (second compound 1 µM) was less than 31.6 nM. It also gave an IC50 (second compound 3.16 µM) of less than 31.6 nM, an IC50 (second compound 10 µM) of less than 31.6 nM and a viability, T/C [1] of 74.2%. It also gave a viability, T/C [2] of 60.7%, a viability, T/C [3] of 59.1% and a viability, T/C [4] of 45.6%. For the same molecule, the viability, T/C [5] was 39.1%, the viability, T/C [6] was 36.5% and the viability, T/C [7] was 53.4%. For the same molecule, the viability, T/C [8] was 47%, the viability, T/C [9] was 43.2% and the viability, T/C [10] was 40.4%. For the same molecule, the viability, T/C [11] was 38.1%, the viability, T/C [12] was 27.6% and the viability, T/C [13] was 37.8%. The viability, T/C [14] was 39.9%, the viability, T/C [15] was 32.1% and the viability, T/C [16] was 30.8%. For the same molecule, the viability, T/C [17] was 28.6%, the viability, T/C [18] was 26.4% and the viability, T/C [19] was 30.3%. It also gave a viability, T/C [20] of 29.7%, a viability, T/C [21] of 25.3% and a viability, T/C [22] of 22.2%. The viability, T/C [23] was 21.9%, the viability, T/C [24] was 19.9% and the viability, T/C [25] was 23.3%. For the same molecule, the viability, T/C [26] was 22.2%, the viability, T/C [27] was 16.9% and the viability, T/C [28] was 15.8%. The viability, T/C [29] was 17.1% and the viability, T/C [30] was 15.9%.
`CC(=O)OC12COC1CC(O)C1(C)C(=O)C(O)C3=C(C)C(OC(=O)C(O)C(NC(=O)OC(C)(C)C)c4ccccc4)CC(O)(C(OC(=O)c4ccccc4)C21)C3(C)C` (stereo not given) + CNCc1ccccc1-c1csc(C(C)Nc2nc(C)nc3cc(OC)c(OC)cc23)c1 gave an IC50 (second compound 0.1 µM) of less than 10 nM, an IC50 (second compound 0.316 µM) of less than 10 nM and an IC50 (second compound 1 µM) of less than 10 nM. For the same molecule, the IC50 (second compound 3.16 µM) was less than 10 nM, the IC50 (second compound 10 µM) was less than 10 nM and the viability, T/C [31] was 7.46%. The viability, T/C [1] was 5.57%, the viability, T/C [2] was 5.61% and the viability, T/C [3] was 7.57%. For the same molecule, the viability, T/C [4] was 8.63%, the viability, T/C [5] was 13.1% and the viability, T/C [32] was 7.41%. For the same molecule, the viability, T/C [7] was 5.76%, the viability, T/C [8] was 8.79% and the viability, T/C [9] was 6.37%. For the same molecule, the viability, T/C [10] was 9.11%, the viability, T/C [11] was 10.8% and the viability, T/C [33] was 9.89%. It also gave a viability, T/C [13] of 6.01%, a viability, T/C [14] of 6.6% and a viability, T/C [15] of 7.2%. For the same molecule, the viability, T/C [16] was 11%, the viability, T/C [17] was 10.6% and the viability, T/C [34] was 8.09%. The viability, T/C [19] was 0.04%, the viability, T/C [20] was 0.03% and the viability, T/C [21] was 0.04%. The viability, T/C [22] was 0.48%, the viability, T/C [23] was 10.4% and the viability, T/C [35] was 0.78%. For the same molecule, the viability, T/C [25] was 0.42%, the viability, T/C [26] was 2.08% and the viability, T/C [27] was 0.12%. It also gave a viability, T/C [28] of 10.2% and a viability, T/C [29] of 0.25%.
`CN(C)C/C=C/C(=O)Nc1cc2c(Nc3ccc(F)c(Cl)c3)ncnc2cc1O[C@H]1CCOC1` + CNCc1ccccc1-c1csc(C(C)Nc2nc(C)nc3cc(OC)c(OC)cc23)c1 was tested, and the IC50 (second compound 0.1 µM) was greater than 100 nM, the IC50 (second compound 0.316 µM) was greater than 100 nM and the IC50 (second compound 1 µM) was greater than 100 nM. It also gave an IC50 (second compound 3.16 µM) of 1.72 nM, an IC50 (second compound 10 µM) of less than 0.316 nM and a viability, T/C (second compound 0.1 µM, first compound 0.000316 µM) of 87.9%. For the same molecule, the viability, T/C (second compound 0.1 µM, first compound 0.001 µM) was 79.1%, the viability, T/C (second compound 0.1 µM, first compound 0.00316 µM) was 79.7% and the viability, T/C [31] was 81%. The viability, T/C [1] was 71.5%, the viability, T/C [2] was 77.4% and the viability, T/C (second compound 0.316 µM, first compound 0.000316 µM) was 78.9%. It also gave a viability, T/C (second compound 0.316 µM, first compound 0.001 µM) of 67.8%, a viability, T/C (second compound 0.316 µM, first compound 0.00316 µM) of 73.9% and a viability, T/C [32] of 67.2%. For the same molecule, the viability, T/C [7] was 65.8%, the viability, T/C [8] was 64% and the viability, T/C (second compound 1 µM, first compound 0.000316 µM) was 76.6%. For the same molecule, the viability, T/C (second compound 1 µM, first compound 0.001 µM) was 67.9%, the viability, T/C (second compound 1 µM, first compound 0.00316 µM) was 64% and the viability, T/C [33] was 73.4%. It also gave a viability, T/C [13] of 58.2%, a viability, T/C [14] of 65.7% and a viability, T/C (second compound 3.16 µM, first compound 0.000316 µM) of 62.1%. The viability, T/C (second compound 3.16 µM, first compound 0.001 µM) was 51.1%, the viability, T/C (second compound 3.16 µM, first compound 0.00316 µM) was 42.6% and the viability, T/C [34] was 1.18%. For the same molecule, the viability, T/C [19] was 22.6%, the viability, T/C [20] was 21.1% and the viability, T/C (second compound 10 µM, first compound 0.000316 µM) was 0.49%. It also gave a viability, T/C (second compound 10 µM, first compound 0.001 µM) of 0.76%, a viability, T/C (second compound 10 µM, first compound 0.00316 µM) of 0.34% and a viability, T/C [35] of 0.27%. For the same molecule, the viability, T/C [25] was 1.73% and the viability, T/C [26] was 0.36%.
For `O=C(c1cc(Cc2n[nH]c(=O)c3ccccc23)ccc1F)N1CCN(C(=O)C2CC2)CC1` + CNCc1ccccc1-c1csc(C(C)Nc2nc(C)nc3cc(OC)c(OC)cc23)c1, the IC50 (second compound 0.1 µM) was 2060 nM, the IC50 (second compound 0.316 µM) was 1810 nM and the IC50 (second compound 1 µM) was 1750 nM. The IC50 (second compound 3.16 µM) was 411 nM, the IC50 (second compound 10 µM) was less than 31.6 nM and the viability, T/C [1] was 83.4%. It also gave a viability, T/C [2] of 80.3%, a viability, T/C [3] of 82.8% and a viability, T/C [4] of 73.6%. It also gave a viability, T/C [5] of 36.1%, a viability, T/C [6] of 19.2% and a viability, T/C [7] of 86.6%. For the same molecule, the viability, T/C [8] was 87.4%, the viability, T/C [9] was 76.7% and the viability, T/C [10] was 69.5%. The viability, T/C [11] was 32.4%, the viability, T/C [12] was 19.1% and the viability, T/C [13] was 90.8%. For the same molecule, the viability, T/C [14] was 81.8%, the viability, T/C [15] was 81.3% and the viability, T/C [16] was 66.3%. For the same molecule, the viability, T/C [17] was 33.2%, the viability, T/C [18] was 19.1% and the viability, T/C [19] was 57.7%. For the same molecule, the viability, T/C [20] was 67.8%, the viability, T/C [21] was 62% and the viability, T/C [22] was 0.7%. It also gave a viability, T/C [23] of 25.9%, a viability, T/C [24] of 0.17% and a viability, T/C [25] of 2.32%. The viability, T/C [26] was 0.2%, the viability, T/C [27] was 1.62% and the viability, T/C [28] was 0.19%. The viability, T/C [29] was 0.15% and the viability, T/C [30] was 1.22%.
